Experimental data as given in patent publication US20250090540A1, “PI3K-ALPHA INHIBITORS AND METHODS OF USE THEREOF” (Relay Therapeutics, Inc., priority 2021, published 2025).

Target: H1047R PIK3CA enzyme (Homo sapiens, UniProt P42336, H1047R)
Assay: ADP-Glo Biochemical PIK3CA Kinase Assay
Conditions: not given

Chain of H1047R PIK3CA enzyme (P42336 whole entry H1047R): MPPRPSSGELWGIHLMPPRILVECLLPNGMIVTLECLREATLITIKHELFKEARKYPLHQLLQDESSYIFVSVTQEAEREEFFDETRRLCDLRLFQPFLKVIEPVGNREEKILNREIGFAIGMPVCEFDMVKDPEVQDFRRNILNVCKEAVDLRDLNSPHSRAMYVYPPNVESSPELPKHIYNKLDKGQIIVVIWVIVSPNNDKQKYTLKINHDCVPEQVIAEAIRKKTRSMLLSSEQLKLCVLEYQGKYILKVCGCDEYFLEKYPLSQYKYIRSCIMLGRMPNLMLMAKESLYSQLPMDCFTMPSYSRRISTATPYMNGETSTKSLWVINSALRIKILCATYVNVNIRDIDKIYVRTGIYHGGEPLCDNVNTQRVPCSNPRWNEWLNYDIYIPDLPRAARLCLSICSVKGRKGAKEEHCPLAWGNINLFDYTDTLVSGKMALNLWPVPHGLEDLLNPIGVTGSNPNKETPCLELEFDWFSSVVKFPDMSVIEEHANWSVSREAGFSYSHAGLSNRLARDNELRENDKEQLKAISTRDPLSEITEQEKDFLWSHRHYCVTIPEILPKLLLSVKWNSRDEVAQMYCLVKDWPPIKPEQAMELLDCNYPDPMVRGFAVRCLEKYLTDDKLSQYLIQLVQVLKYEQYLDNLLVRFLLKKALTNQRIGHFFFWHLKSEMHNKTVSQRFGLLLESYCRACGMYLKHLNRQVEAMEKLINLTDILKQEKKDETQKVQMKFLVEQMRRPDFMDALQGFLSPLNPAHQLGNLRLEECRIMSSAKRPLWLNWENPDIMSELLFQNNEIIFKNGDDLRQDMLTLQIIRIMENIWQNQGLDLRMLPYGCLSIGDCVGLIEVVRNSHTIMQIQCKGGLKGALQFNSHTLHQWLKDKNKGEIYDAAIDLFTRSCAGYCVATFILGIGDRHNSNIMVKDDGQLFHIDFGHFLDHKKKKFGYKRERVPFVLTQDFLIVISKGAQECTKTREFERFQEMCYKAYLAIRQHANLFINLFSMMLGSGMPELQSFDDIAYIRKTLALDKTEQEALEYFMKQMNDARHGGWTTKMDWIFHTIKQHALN
Chain of H1047R PIK3CA enzyme (P27986 whole entry partner): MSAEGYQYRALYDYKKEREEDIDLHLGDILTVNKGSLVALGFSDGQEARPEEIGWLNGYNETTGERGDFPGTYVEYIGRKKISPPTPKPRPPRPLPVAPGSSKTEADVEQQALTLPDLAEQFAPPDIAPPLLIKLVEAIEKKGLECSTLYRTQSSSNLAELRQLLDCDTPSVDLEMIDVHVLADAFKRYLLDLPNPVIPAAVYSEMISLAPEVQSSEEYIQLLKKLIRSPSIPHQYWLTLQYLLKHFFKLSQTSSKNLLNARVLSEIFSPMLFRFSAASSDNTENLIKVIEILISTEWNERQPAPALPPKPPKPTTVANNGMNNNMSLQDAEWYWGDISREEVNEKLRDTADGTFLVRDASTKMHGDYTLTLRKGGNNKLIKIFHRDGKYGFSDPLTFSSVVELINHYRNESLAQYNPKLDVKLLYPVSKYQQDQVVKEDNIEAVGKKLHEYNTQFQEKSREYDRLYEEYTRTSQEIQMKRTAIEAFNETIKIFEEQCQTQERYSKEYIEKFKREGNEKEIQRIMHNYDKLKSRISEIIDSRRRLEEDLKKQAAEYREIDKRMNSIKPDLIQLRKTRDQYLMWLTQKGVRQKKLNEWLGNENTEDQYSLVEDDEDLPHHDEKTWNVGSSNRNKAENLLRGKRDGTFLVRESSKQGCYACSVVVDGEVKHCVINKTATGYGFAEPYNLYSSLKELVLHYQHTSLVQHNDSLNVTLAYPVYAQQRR

SMILES | IC50
CNC(=O)c1cnc(Nc2ccccc2C)c(NC(=O)Cc2c(C)nc(N)[nH]c2=O)c1 [I-26] | 10 to 100 µM
Cc1ccccc1[C@@H]1Nc2ccccc2[C@H]1CNC(=O)c1cc(F)cc(C(F)(F)F)c1 (racemic) [I-808, 3-fluoro-N-(((2R,3S)-2-(o-tolyl)indolin-3-yl)methyl)-5-(trifluoromethyl)benzamide] | 10 to 100 µM
CNC(=O)c1cnc(Nc2ccccc2C)c(NC(=O)C2CCN(C(C)=O)CC2)c1 [I-163] | 10 to 100 µM
Cc1ccccc1Nc1ncc(-c2cnn(C)c2)cc1NC(=O)c1ccccc1S(C)(=O)=O [I-128] | 10 to 100 µM
Cc1ccccc1NC(=O)c1cc(NC(=O)c2cc(F)cc(C(F)(F)F)c2)c(Nc2ccccc2C)cn1 [I-324] | 10 to 100 µM
Cc1ccccc1Nc1ncc(-c2cn[nH]c2)cc1NC(=O)c1cc(F)cc(C(F)(F)F)c1 [I-81] | 1 to 10 µM
CNC(=O)c1cnc(Nc2cccnc2C)c(NC(=O)c2cc(F)cc(C(F)(F)F)c2)c1 [I-173] | 10 to 100 µM
CNC(=O)c1cnc(N[C@@H]2CCCC[C@@H]2CO)c(NC(=O)c2cc(F)cc(C(F)(F)F)c2)c1 (racemic) [I-812] | 10 to 100 µM
Cc1ccccc1Nc1ncc(-c2cnn(C)c2)cc1NC(=O)c1cccc(S(C)(=O)=O)c1 [I-118] | 10 to 100 µM
CNC(=O)c1cnc(Nc2ccccc2C)c(NC(=O)c2nc(SC)ncc2Cl)c1 [I-187] | 10 to 100 µM
Cc1ccccc1Nc1ncc(N)cc1NC(=O)c1cc(F)cc(C(F)(F)F)c1 [I-70] | 1 to 10 µM
Cc1ccccc1Nc1ncc(-c2cnn(C)c2)cc1NC(=O)c1cccc2ccccc12 [I-113] | 10 to 100 µM
Cc1ccccc1Nc1ncc(NC(=O)CC#N)cc1NC(=O)c1cc(F)cc(C(F)(F)F)c1 [I-154] | 1 to 10 µM
Cc1ccccc1Nc1ncc(C(=O)NC2CS(=O)(=O)C2)cc1NC(=O)c1cc2ccccc2o1 [I-357] | 10 to 100 µM
CNC(=O)c1cnc(N2c3ccccc3CCC2C)c(NC(=O)c2csc3ccccc23)c1 (centres unmarked) [I-218] | 10 to 100 µM
CNC(=O)N1CC[C@@H](Nc2ccccc2C)[C@H](C(=O)Nc2cc(F)cc(C(F)(F)F)c2)C1 (racemic) [I-229] | 10 to 100 µM
CNC(=O)c1cnc(Nc2cccc(F)c2)c([N+](=O)[O-])c1 [I-25] | 10 to 100 µM
Cc1ccccc1N[C@H]1CCN(C(=O)OC(C)(C)C)C[C@@H]1C(=O)Nc1cc(F)cc(C(F)(F)F)c1 (racemic) [I-156] | 10 to 100 µM
O=C(Nc1ccnn1-c1ccccc1)c1cc(F)cc(C(F)(F)F)c1 [I-806] | 10 to 100 µM
CNC(=O)c1cnc(N2CCc3ccccc32)c(NC(=O)c2cc(F)cc(C(F)(F)F)c2)c1 [I-37] | 10 to 100 µM
Cc1cccc(C(=O)Nc2cc(-c3cnn(C)c3)cnc2Nc2ccccc2C)c1 [I-115] | 10 to 100 µM
Cc1ccccc1Nc1ncc(C(=O)NS(C)(=O)=O)cc1NC(=O)c1cc(F)cc(C(F)(F)F)c1 [I-69] | 10 to 100 µM

Further lines, results first:

IC50 | SMILES
10 to 100 µM | CNC(=O)c1cnc(Nc2ccccc2C)c(NC(=O)Cc2ccccc2Cl)c1 [I-140]
10 to 100 µM | CNC(=O)c1cnc(Nc2ccccc2C)c(NC(=O)c2cn3ccccc3n2)c1 [I-374]
10 to 100 µM | CNC(=O)c1cnc(Nc2ccccc2C)c(NC(=O)c2ccccc2)c1 [I-43]
10 to 100 µM | CNC(=O)c1cnc(Nc2ccccc2C)c(NC(=O)c2n[nH]c3c(F)cccc23)c1 [I-383]
10 to 100 µM | CNC(=O)c1cnc(Nc2ccccc2C)c(NC(=O)c2ccc(F)c3ccccc23)c1 [I-236]
10 to 100 µM | CNC(=O)c1cnc(Nc2ccccc2C)c(NC(=O)c2nccc3ccccc23)c1 [I-233]
10 to 100 µM | CNC(=O)c1cnc(Nc2ccccc2C)c(NC(=O)c2cc3ccccc3cn2)c1 [I-184]
10 to 100 µM | CNC(=O)c1cnc(Nc2ccccc2C)c(NC(=O)c2cc(Cl)ccc2OC)c1 [I-12]
10 to 100 µM | CNC(=O)c1cnc(Nc2ccccc2C)c(NC(=O)c2c[nH]c3cccc(OC)c23)c1 [I-370]

Same assay, conditions: ADP-Glo biochemical PIK3CA kinase assay

SMILES | IC50
Cc1ccccc1Nc1ncc(C(=O)NCc2ncccn2)cc1NC(=O)c1cc(F)cc(C(F)(F)F)c1 [I-719] | 1 to 10 µM
CCn1nccc1Nc1ncc(C(=O)NC)cc1NC(=O)c1csc2ccccc12 [I-735] | 1 to 10 µM
O=C(Nc1cc(C2CC2)nn1-c1ccccc1)c1cc(F)cc(C(F)(F)F)c1 [I-786] | 10 to 100 µM
CNC(=O)c1cnc(Nc2ccccc2C)c(NC(=O)c2cc(Cl)nc(C(F)(F)F)c2)c1 [I-762] | 0.5 to 1 µM
CNC(=O)c1cnc(Nc2ccccc2C)c(NC(=O)Cc2ccc(F)cc2C(F)(F)F)c1 [I-502] | 10 to 100 µM
CC#CCC(C(=O)Nc1cc(C(=O)NC)cnc1Nc1ccccc1C)c1ccccc1 (centres unmarked) [I-446] | 10 to 100 µM
Cc1ccccc1Nc1ncc(C(=O)NCc2ccc(Cl)cc2)cc1NC(=O)c1cc(F)cc(C(F)(F)F)c1 [I-702] | 0.5 to 1 µM
CNC(=O)c1cnc(Nc2ccccc2C)c(NC(=O)c2cnc3cc(F)ccn23)c1 [I-451] | 10 to 100 µM
O=C(Nc1ccn2cnnc2c1Nc1ccccc1Cl)c1cc(F)cc(C(F)(F)F)c1 [I-794] | 10 to 100 µM
Cc1ccccc1Nc1nnccc1NC(=O)c1csc2ccccc12 [I-553] | 1 to 10 µM
CC(NC(=O)c1cnc(N)c(NC(=O)c2csc3ccccc23)c1)c1cn[nH]c1 (centres unmarked) [I-690] | 1 to 10 µM
CNC(=O)c1cnc(Nc2ccccc2C)c(NC(=O)c2ncsc2C(F)(F)F)c1 [I-492] | 10 to 100 µM
Cc1ccccc1Nc1ncc(C(=O)NCc2nnc3ccccn23)cc1NC(=O)c1cc(F)cc(C(F)(F)F)c1 [I-759] | 1 to 10 µM
Cc1ccccc1Nc1ncc(C(=O)Nc2cnn3cccc(F)c23)cc1NC(=O)c1csc2ccccc12 [I-500] | 10 to 100 µM
CNC(=O)c1cnc(Nc2ccc3c(c2)N(C)C(=O)CO3)c(NC(=O)c2csc3ccccc23)c1 [I-744] | 1 to 10 µM
CNC(=O)c1cnc(Nc2ccc3c(c2)COC3)c(NC(=O)c2csc3ccccc23)c1 [I-733] | 1 to 10 µM
Cc1ccccc1Nc1c(NC(=O)c2csc3ccccc23)ccn(C)c1=O [I-548] | 1 to 10 µM
Nc1cc(-c2ccc(F)cc2)nn1-c1nc2ccccc2[nH]1 [I-792] | 1 to 10 µM
Cc1nn(C(=O)c2cc(F)cc(C(F)(F)F)c2)c(N)c1-c1ccccc1 [I-779] | 1 to 10 µM
Cc1ccccc1Nc1ncc(C(=O)N2CC(CF)C2)cc1NC(=O)c1csc2ccccc12 [I-628] | 1 to 10 µM

Continued, values first:

IC50 | SMILES
10 to 100 µM | CNC(=O)c1cnc(Nc2ccccc2C)c(NC(=O)C2(c3cccc(Br)c3)CC2)c1 [I-503]
10 to 100 µM | CNC(=O)c1cnc(Nc2ccccc2C)c(NC(=O)c2ccc(F)c(C)c2Cl)c1 [I-479]
10 to 100 µM | CNC(=O)c1cnc(Nc2ccccc2C)c(NC(=O)c2ccc(Br)c3cccnc23)c1 [I-516]
10 to 100 µM | CNC(=O)c1cnc(Nc2ccccc2C)c(NC(=O)c2ccc3ccccc3c2Br)c1 [I-453]
10 to 100 µM | CNC(=O)c1cnc(Nc2ccccc2C)c(NC(=O)c2cc(C)c3ccccc3n2)c1 [I-418]
10 to 100 µM | CNC(=O)c1cnc(Nc2ccccc2C)c(NC(=O)c2ccc3c(ccn3C)c2)c1 [I-523]
10 to 100 µM | CNC(=O)c1cnc(Nc2ccccc2C)c(NC(=O)c2c[nH]c3cccc(Cl)c23)c1 [I-528]
10 to 100 µM | CNC(=O)c1cnc(Nc2ccccc2C)c(NC(=O)c2cc3cc[nH]c3cc2F)c1 [I-429]
1 to 10 µM | CNC(=O)c1cnc(Nc2ccccc2C)c(NC(=O)c2cc3c(Cl)cc(Cl)cc3[nH]2)c1 [I-507]
10 to 100 µM | CNC(=O)c1cnc(Nc2ccccc2C)c(NC(=O)C(C)Cc2ccc(F)cc2)c1 (centres unmarked) [I-471]
10 to 100 µM | CNC(=O)c1cnc(Nc2ccccc2C)c(NC(=O)Cc2cccc(Br)c2F)c1 [I-501]
